Experimental data as given in a melting point compilation (Tetko et al.; mined from patent text by program, amines drawn as free bases though some values may be those of a salt).

SMILES	melting point
CC(C)(C)C1=CC(=Nc2cccc(C(=O)O)c2)C=C(C(C)(C)C)C1=O	230 to 231 °C
CC1CC(=O)NN=C1c1ccc(NC(=O)c2ccco2)cc1 (configuration not stated)	213 to 216 °C
Nc1cc(C(=O)c2cccc(C(=O)c3ccc(F)c(N)c3)c2)ccc1F	170 to 171 °C
O=C(Nc1ccccc1)O[C@@H]1CN=C(c2ccc(OC(F)(F)F)cc2)O[C@H]1c1ccccc1 (racemic)	128 °C
O=C1COCCOCC(=O)NCCOCCOCCN1	111 °C
c1ccc(CN2CCC(Nc3cccnc3)CC2)cc1	131 to 133 °C
CC(C)(C)N1CCc2c(C(=O)O)nc3c(C#N)cnn3c21	230 to 232 °C
COc1cc(OC)c2c(=O)[nH]c(-c3cc(C)c(OCCO)c(C)c3)nc2n1	255 to 256 °C
CN(C)S(=O)(=O)c1ccc2c(c1)C(Cl)c1ccccc1C=C2 (configuration not stated)	140 to 144 °C
NC(=O)c1ccc(N2CCN(CCCC3OCCc4ccccc43)CC2)cc1 (racemic)	185 °C
COc1cc(COc2nn(-c3ccccc3)cc2C=C(C#N)C#N)ccc1OCc1nc(-c2ccco2)oc1C	190 to 191 °C
CCOC(=O)c1cn(C2CC2)c2c(F)c(F)c(F)c(N)c2c1=O	223 to 225 °C
CN(CC(C)(C)[N+](=O)[O-])c1ccc(N(C)CC(C)(C)[N+](=O)[O-])cc1	119 to 121 °C
COC(=O)Cc1c(Cl)nc(-c2ccccc2)n1Cc1ccc(C)cc1	92 to 95 °C
O=C(Nc1ncnc2c1ncn2C[C@@H]1O[C@H](CO)[C@@H](O)[C@H]1O)c1ccccc1	85 to 90 °C
CC(C)(C)c1ccc(C(=O)Nc2ccc(N)cc2)cc1	111 to 113 °C
CCCCc1ccc(NC=NO)c(C)c1	132 to 134 °C
O=c1cc(NCCN2CCN(c3ccccc3)CC2)cn[nH]1	147 to 149 °C
CCOc1cccc(C)c1S(=O)(=O)NC(=O)n1nc(OCC)n(C)c1=O	160 °C
O=C(OCC(Cl)(Cl)Cl)N1CCCC(C(=O)OCc2ccccc2)(C(=O)OCc2ccccc2)C1	76 °C
C[C@H]1C(=O)C[C@@H]2C[C@H]1OO[C@@]2(C)C=O	92 °C
Oc1ccnc(Nc2cccc(Cl)c2)n1	250 to 252 °C
CC1(C)CC(NC(=O)c2ccc(-c3cc4cc(Cl)c(Cl)cc4[nH]3)c(OCc3ccccc3)c2)CC(C)(C)N1	220 °C
COc1cc(OC)nc(Oc2cccc(Cl)c2C(=O)NS(=O)(=O)C(C)C)n1	150 to 152 °C
O=c1cc(CBr)c2cc(O)ccc2o1	198 to 200 °C
Cn1cc(C2=C(c3cn(CCCNS(C)(=O)=O)c4ccccc34)C(=O)NC2=O)c2ccccc21	135 to 138 °C

SMILES	melting point
CCCCOCCOc1ccc(-c2ccc(N(C)CCOC)c(C=CC(=O)O)c2)cc1	86.4 to 87.4 °C
CCCCCCC1=C(Br)C(CBr)(NCc2ccccc2)OC1=O (configuration not stated)	72 to 75 °C
CC(C)OC(=O)C=CC(=O)c1ccc(Oc2ccccc2)cc1	71.5 to 72 °C
CCCn1c(=O)c(=O)[nH]c2cc([N+](=O)[O-])c(-n3ccc(=O)c([N+](=O)[O-])c3)cc21	> 300 °C
COC(=O)c1ccc2oc(CCCCCc3cc4cc(C(=O)OC)ccc4o3)cc2c1	83 to 85 °C
CCc1nc(C)[nH]c1Sc1ccccc1	171 °C
CN1C(=O)C(Cc2ccncc2)(Cc2ccncc2)NC1=S	225 to 227 °C
CC(C)COC(=O)NC1=NCC(c2ccccc2)N1C (configuration not stated)	103 to 104 °C
CCN(CC)C(=O)O[C@@H]1[C@@H](c2ccccc2)Nc2c(ccn3c(C)c(C)nc23)[C@H]1OC	97 to 98 °C
O=c1oc(-c2ccccc2)cc(O)c1SCc1cccc(OCc2ccccc2)c1	140 to 141 °C
O=C(Nc1cccnc1)c1cccc(-c2ccc3c(c2)C(Oc2ccc(Cl)cc2Cl)CC3)c1 (configuration not stated)	188 to 189 °C
CNc1ccc(C(=O)c2ccccc2)cc1[N+](=O)[O-]	198 to 201 °C
Cc1oc(C=Cc2cccc(C(F)(F)F)c2)nc1C(=O)O	204 to 205 °C
COC(=O)C[C@H](NC(=O)OCc1ccccc1)C(=O)O	55 to 60 °C
CCCCNc1nc(C)c(C(=O)c2ccc(Cl)c([N+](=O)[O-])c2)s1	125 to 128 °C
CCNc1c(C(=O)OCC)c(C)nc(OCC)c1[N+](=O)[O-]	40 to 42 °C
CS(=O)(=O)Nc1ccc(N2CCN(c3cc([N+](=O)[O-])ccn3)CC2)cc1	182 to 183 °C
NC(=O)c1ccc(-c2ccc(-c3ccc(C(F)(F)F)cc3)o2)cc1	263 to 264 °C
O=C1Nc2ccc(I)cc2C1=NNC(=O)c1ccc(Oc2ccc(CN3CCOCC3)cc2)cc1	252 °C
ON=Cc1ccc(Sc2ccccc2)cc1	74 to 76 °C
O=C1CCCc2cc(-c3ccccc3)ccc21	99 to 100 °C
CCC(=O)n1c(=O)[nH]c(=O)n1C(=O)CC	208 °C
O=C(Oc1ccccc1)c1ccc2c(c1)S(=O)(=O)NCN2C1CC1	160 to 162 °C
CCCCCCCNC(=O)N(C)c1cccc(-c2cc(F)c(CCC(=O)O)c(F)c2)c1	86 °C
Cc1c2c(c(Cc3ccc(C(C)C)cc3)c(C)c1NC(=O)NCCO)OCC2	176 to 177 °C
CC(C)(C)OC(=O)N1CCCC(c2ccc3c(c2)C2(CO3)C(=O)N(Cc3ccc(C(F)(F)F)o3)c3ccccc32)C1 (configuration not stated)	59 to 61 °C

SMILES	melting point
CCOC(=O)C1=C(C)NN=C(C(=O)O)C1c1cccc(Cl)c1 (configuration not stated)	182 °C
C=CC[C@@]1(NC(=O)OC(C)(C)C)C(=O)[C@@H](C(C)C)N(C(=O)OC(C)(C)C)C1=O	83 °C
CCn1cc(C(=O)O)c(=O)c2cc(F)c(N3Cc4ccc(N)cc4C3)cc21	> 300 °C
CC1(C)COC(c2cc(F)c(F)c([Si](C)(C)C)c2F)=N1	71 to 72 °C
CCOC(=O)c1cn(-c2ccccc2)c2ccc(CN3CCOCC3)cc2c1=O	159 to 161 °C
Cc1cc(OCC(O)CNC(C)(C)C)c2cc(C(N)=O)[nH]c2c1 (configuration not stated)	213 to 214 °C
NC(=S)NCCN1CCC(Nc2nc3ccccc3n2Cc2ccc(F)cc2)CC1	186 °C
NCc1[nH]c2cc(Br)c(Cl)cc2c1-c1ccccc1	162 to 163 °C
O=C1COCc2ccccc2N1	160 to 165 °C
CSc1nnc(Cc2ccccc2S(N)(=O)=O)s1	175 to 178 °C
COc1ccc(/C=C/c2c(Cl)cccc2Cl)cc1OC1CCCC1	47 to 49 °C
OCc1cc(Cl)c(F)cn1	50 to 52 °C
CCCCCCCC1=CC(=O)N(Cc2ccccc2)C1=CBr	52 to 55 °C
C[C@@](N)(Cc1ccc(OC(F)(F)F)cc1)C(=O)Nc1cc(Cl)cc(Cl)c1	> 200 °C
CC1(C)Oc2ccc(Cl)cc2[C@@H](n2ccccc2=O)[C@@H]1O (relative stereo)	250 °C
O=C(O)c1ccc2cccc(Br)c2c1	265 to 266 °C
O=Cc1c(Cl)ccc(C(=O)O)c1Cl	188 to 190 °C
O=C1CCCCCCCCCCCCC1	56 °C
CC(C)Oc1ccccc1-c1ncc(C(=O)O)c(=O)[nH]1	191 to 193 °C
CCOC(=O)CCc1cccc(C2COc3c(C)c(C)c(NC(=O)CC(C)(C)C)c(C)c32)c1 (configuration not stated)	136 to 138 °C
C=C1CC(C=CC(O)CCCCC)C(O)(Cc2cccc(OCc3ccccc3)c2)C1 (configuration not stated)	58 °C
Cc1ccc(S(=O)(=O)NC(=O)c2cccc(OCc3csc(-c4ccccc4)n3)c2)cc1	170 to 172 °C
CCOC(=O)Nc1cc([N+](=O)[O-])cc(CC)c1C(=O)OCC	47 to 48 °C
O=S(=O)(Nc1onc2c1CCCC2)c1ccccc1	155 to 157 °C
Cc1cccc(NC(=O)NCC(=O)N2[C@@H](C(=O)NC(C)(C)C)CC[C@H]2c2ccccc2)c1 (racemic)	169 °C
CN(C)Cc1cc(OCCCO)cs1	32 to 34 °C

SMILES	melting point
CCOc1ccc(C(C)=NOCCO)cc1	51 to 54 °C
COc1ccc(C(C)(C)C)cc1NC(=S)Nc1cccc2ccccc12	158 to 160 °C
c1ccc(C(CC2CC3CCN2CC3)c2ccccc2)cc1 (configuration not stated)	87.5 to 89 °C
O=C(NCc1ccc(Cl)cc1)c1cn2c3c(cc(CN4CCOCC4)cc3c1=O)OC(CNCc1ccncc1)C2 (configuration not stated)	164 to 167 °C
Cc1noc(C)c1C(=O)Nc1ccc(-n2ccc(C(F)(F)F)n2)cc1	177 to 178 °C
CC(=NOCCO)c1ccc(-c2ccccc2)cn1	66 to 68 °C
CC(C)(C)c1cc(C(c2ccc(C#N)cc2)N2CCCCC2)cc(C(C)(C)C)c1O (configuration not stated)	139 to 140 °C
O=[N+]([O-])c1ccc(OCc2nnco2)cc1	125 to 126 °C
CCCCOc1c(N(C)C(=O)OC(C)(C)C)n(CC(C)(C)C)c(=O)c2ccc(CC(N)=O)cc12	114 to 115 °C
Cc1nc(NC(=O)C2=C(O)c3ccc4ccccc4c3S(=O)(=O)N2C)sc1C	264 to 265 °C
CC(=O)n1c(C)c(-c2ccccc2)c(=O)n1-c1ncccn1	138 to 140 °C
CCC1CCc2cc3c(cc2C1)C(=O)c1cccc(OC)c1C3=O (configuration not stated)	206 to 208 °C
CCC12CCC3C4CCC(OC)=CC4=CCC3C1C(OC(C)=O)CC2=O (configuration not stated)	190 °C
O=C(O)c1ccc(/C=C/c2ccc3c(=O)[nH]ncc3c2)cc1	> 345 °C
Cc1nc(N)c2nc(C)n(CCOCc3ccccc3)c2c1C	137 to 138 °C
COC(=O)c1ccc(NC(=O)C(=Cc2ccccc2)C(=O)C(C)C)cc1	154 to 156 °C
O=C(O)C1=Cc2cc(Cl)c(C(F)(F)F)cc2OC1C(F)(F)F (configuration not stated)	181 to 182 °C
Cn1ncc2nc3c(c(O)c21)CCCC3	> 300 °C
c1ncn(Cc2ccc3c(c2)Cc2c(-c4ccsc4)n[nH]c2-3)n1	252 to 257 °C
CC(C)CC1Cc2cc(OCC(=O)O)c(Cl)c(Cl)c2C1=O (configuration not stated)	192 °C
Cc1cc2c(cc1C)-n1nnnc1C=C(c1ccc(-n3c(C)nc4cnccc43)cc1)N2	315 °C
COc1cc(C)nc2c(OCc3c(Cl)ccc(N)c3Cl)cccc12	> 250 °C
Cc1ccc(-c2ccc3c(c2)C=C(C(=O)O)CCO3)cc1	255 to 256 °C
COC(=O)c1ccc(F)cc1C#N	92 to 93 °C
